“And” between values parts separate entries of the source, which are not always exact repeats. Identical values can stand only once.
Columns and labels:
[1] = system: P. berghei PbGFP-Luccon liver stage; assay: In vitro inhibition of liver stage infection of Huh-7 cells, bioluminescence; assay type: cell-based, Plasmodium berghei; settings: DMSO = 100
Method: (§1) In vitro inhibition of Plasmodium liver stage infection was assessed using bioluminescence data from Huh-7 cells infected with a firefly-luciferase-expressing P. berghei line, PbGFP-Luccon, in the presence of various compound concentrations. […] One day before drug treatment and infection, 10^4 Huh-7 cells/well were seeded in 96-well plates. The medium was then replaced by an infection medium (culture medium supplemented with 50 μg/mL gentamycin and 0.8 μg/mL amphotericin B) containing desired concentrations of test compounds. Fresh sporozoites recovered from salivary glands of infected female Anopheles stephensi mosquitoes were added to seeded Huh-7 cells at a 1:1 proportion, followed by centrifugation at 1700g for 5 minutes and incubation for 46 hours at 37°C under 5% CO2. Compound toxicity against Huh-7 cells was assessed by measuring […] using the Alamar Blue assay (Invitrogen). IC50 values were calculated using nonlinear regression analysis (GraphPad Prism version 9).

[2] = system: Huh-7 cells; assay: Host cell confluency, Alamar Blue; assay type: cell-based, human; settings: DMSO = 100
Method: as §1

[3] = system: Hz formation in ABS P. falciparum 3D7 parasites; assay: Cellular heme fractionation assay; assay type: cell-based, Plasmodium falciparum; settings: for %Hb / %Heme / %Hemozoin / Hb Fe (fg/troph) / Heme Fe (fg/troph) / Hemozoin Fe (fg/troph) / Total Fe (fg/troph): rep 1-4 and Mean
Method: A heme fractionation assay was used to measure the inhibition of Hz formation in cultured ABS P. falciparum 3D7 parasites as previously described. […] Late trophozoites were harvested after 32 hours of incubation by lysing RBCs with 0.05% saponin followed by multiple washes with 1 × PBS (pH 7.5) to remove any residual traces of hemoglobin. The parasite pellet was resuspended in PBS and the total number of trophozoites isolated was quantified using flow cytometry. Contents of the trophozoite pellet were released by hypotonic lysis and sonication. After centrifugation, treatments with HEPES buffer (pH 7.4), sodium dodecyl sulfate, pyridine, and NaOH, allowed us to separate the fractions corresponding to the different heme species of interest. A microplate reader was employed to measure the UV-visible spectrum of each heme fraction as a Fe(III)heme-pyridine complex. Fractions of undigested hemoglobin, “free” heme, and Hz were quantified using a heme standard curve based on the mass of each heme-Fe species per mature trophozoite (fg/cell), obtained by dividing the total amount of each heme species by the corresponding number of parasites in that fraction as determined by flow cytometry. Statistical comparisons and analyses for trends employed Students’ t-tests (GraphPad Prism version 9).

[4] = 0.5–3.0 × IC50 vs untreated control

COc1cc(NC(C)CCCN)c2ncccc2c1 (centres unmarked) [Primaquine]
Infection, Mean ([1]; 1 uM): 136.53 | Infection, Mean ([1]; 10 uM): 51.51 | Confluency, Mean ([2]; 1 uM): 110.92 | Confluency, Mean ([2]; 10 uM): 113.36

C[C@H]1Cc2c([nH]c3cc(Cl)c(F)cc23)[C@@]2(N1)C(=O)Nc1ccc(Cl)cc12 [KAE609, cipargamin]
%Hb ([3]; 0.5x): 3.6542% and 7.0007% and 6.1505% and 3.0130% | %Heme ([3]; 0.5x): 5.3042% and 5.9396% and 6.0562% and 6.0905% | %Hemozoin ([3]; 0.5x): 91.0416% and 87.0597% and 87.7934% and 90.8965% | Hb Fe (fg/troph) ([3]; 0.5x): 2.0363 fg/troph and 3.5589 fg/troph and 3.2475 fg/troph and 1.8499 fg/troph | Heme Fe (fg/troph) ([3]; 0.5x): 2.9557 fg/troph and 3.0195 fg/troph and 3.1977 fg/troph and 3.7394 fg/troph | Hemozoin Fe (fg/troph) ([3]; 0.5x): 50.7323 fg/troph and 44.2576 fg/troph and 46.3552 fg/troph and 55.8088 fg/troph | Total Fe (fg/troph) ([3]; 0.5x): 55.72 fg/troph and 50.84 fg/troph and 52.80 fg/troph and 61.40 fg/troph | effect on Hz levels [3, 4]: did not affect Hz formation | effect on undigested Hb [3, 4]: subtle yet significant increment in Hb levels observed under 2 and 2.5 × IC50 | %Hb ([3]; 1x): 5.1693% and 5.1920% and 5.0902% and 5.1212% | %Heme ([3]; 1x): 5.7735% and 5.8398% and 5.6460% and 5.8813% | %Hemozoin ([3]; 1x): 89.0573% and 88.9682% and 89.2638% and 88.9975% | Hb Fe (fg/troph) ([3]; 1x): 2.9437 fg/troph and 3.1428 fg/troph and 2.7576 fg/troph and 3.0371 fg/troph | Heme Fe (fg/troph) ([3]; 1x): 3.2877 fg/troph and 3.5349 fg/troph and 3.0588 fg/troph and 3.4878 fg/troph | Hemozoin Fe (fg/troph) ([3]; 1x): 50.7140 fg/troph and 53.8534 fg/troph and 48.3591 fg/troph and 52.7792 fg/troph | %Hb ([3]; 2x): 6.5332% and 6.7594% and 6.3629% and 6.9166% | %Heme ([3]; 2x): 5.4724% and 5.9940% and 4.2854% and 5.7076% | %Hemozoin ([3]; 2x): 87.9944% and 87.2465% and 89.3517% and 87.3758% | Hb Fe (fg/troph) ([3]; 2x): 4.0073 fg/troph and 4.4606 fg/troph and 3.7570 fg/troph and 4.7143 fg/troph | Heme Fe (fg/troph) ([3]; 2x): 3.3567 fg/troph and 3.9555 fg/troph and 2.5303 fg/troph and 3.8902 fg/troph | Hemozoin Fe (fg/troph) ([3]; 2x): 53.9742 fg/troph and 57.5747 fg/troph and 52.7581 fg/troph and 59.5545 fg/troph | Total Fe (fg/troph) ([3]; 2x): 61.34 fg/troph and 65.99 fg/troph and 59.05 fg/troph and 68.16 fg/troph | %Hb ([3]; 2.5x): 5.1788% and 7.1992% and 6.5284% and 7.3663% | %Heme ([3]; 2.5x): 6.6682% and 5.2565% and 5.5507% and 5.3264% | %Hemozoin ([3]; 2.5x): 88.1530% and 87.5443% and 87.9209% and 87.3073% | Hb Fe (fg/troph) ([3]; 2.5x): 2.9541 fg/troph and 4.0082 fg/troph and 4.1259 fg/troph and 4.4913 fg/troph | Heme Fe (fg/troph) ([3]; 2.5x): 3.8037 fg/troph and 2.9266 fg/troph and 3.5080 fg/troph and 3.2476 fg/troph | Hemozoin Fe (fg/troph) ([3]; 2.5x): 50.2849 fg/troph and 48.7406 fg/troph and 55.5658 fg/troph and 53.2328 fg/troph | Total Fe (fg/troph) ([3]; 2.5x): 57.04 fg/troph and 55.68 fg/troph and 63.20 fg/troph and 60.97 fg/troph | %Hb ([3]; 3x): 3.4597% and 3.9960% and 5.9128% and 5.9841% | %Heme ([3]; 3x): 6.5997% and 5.1160% and 5.1737% and 5.1489% | %Hemozoin ([3]; 3x): 89.9406% and 90.8880% and 88.9135% and 88.8671% | Heme Fe (fg/troph) ([3]; 3x): 3.6368 fg/troph and 3.2102 fg/troph and 3.3952 fg/troph and 3.4079 fg/troph | Hemozoin Fe (fg/troph) ([3]; 3x): 49.5627 fg/troph and 57.0293 fg/troph and 58.3496 fg/troph and 58.8192 fg/troph

Source: article PMC11521309, “A novel 4-aminoquinoline chemotype with multistage antimalarial activity and lack of cross-resistance with PfCRT and PfMDR1 mutants” (PLOS Pathogens, 2024)
